In this data set the target is T1, human TLR9 (Homo sapiens, UniProt Q9NR96).
T1 construct: HA; host or cells: 293XL-hTLR9-HA (HEK293)
T1 sequence (Q9NR96 26-1032): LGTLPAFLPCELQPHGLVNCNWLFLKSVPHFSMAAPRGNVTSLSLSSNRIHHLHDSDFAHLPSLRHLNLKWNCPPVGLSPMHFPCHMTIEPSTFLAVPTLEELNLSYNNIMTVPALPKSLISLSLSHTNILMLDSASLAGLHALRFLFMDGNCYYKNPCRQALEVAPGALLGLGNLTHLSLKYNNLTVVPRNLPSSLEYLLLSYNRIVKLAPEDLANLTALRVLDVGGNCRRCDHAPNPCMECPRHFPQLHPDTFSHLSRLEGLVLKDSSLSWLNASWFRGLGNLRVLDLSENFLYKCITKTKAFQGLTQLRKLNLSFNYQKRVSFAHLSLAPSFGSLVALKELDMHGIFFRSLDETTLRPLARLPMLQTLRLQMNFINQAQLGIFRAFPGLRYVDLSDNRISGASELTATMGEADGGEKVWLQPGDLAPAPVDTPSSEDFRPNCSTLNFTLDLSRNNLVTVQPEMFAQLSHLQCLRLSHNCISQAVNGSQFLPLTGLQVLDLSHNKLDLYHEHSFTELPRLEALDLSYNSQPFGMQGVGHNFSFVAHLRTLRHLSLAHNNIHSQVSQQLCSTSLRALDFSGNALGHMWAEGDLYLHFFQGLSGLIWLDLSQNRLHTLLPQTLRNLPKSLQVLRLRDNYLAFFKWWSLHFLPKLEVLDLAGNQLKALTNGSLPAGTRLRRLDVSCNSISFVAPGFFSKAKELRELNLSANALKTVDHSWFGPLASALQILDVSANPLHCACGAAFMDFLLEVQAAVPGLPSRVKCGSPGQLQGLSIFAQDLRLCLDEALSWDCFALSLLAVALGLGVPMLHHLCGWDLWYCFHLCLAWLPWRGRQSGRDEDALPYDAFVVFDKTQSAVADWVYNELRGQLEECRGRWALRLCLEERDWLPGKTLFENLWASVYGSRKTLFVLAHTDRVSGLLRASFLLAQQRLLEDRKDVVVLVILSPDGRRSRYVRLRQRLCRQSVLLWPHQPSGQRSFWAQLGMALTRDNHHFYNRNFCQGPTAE
In words: HEK-TLR9 NF-κB-luciferase reporter, ODN2006 stimulation. The data set is classed as cell-based. As to conditions: for TLR9 100 nM (averaged NF-κB-Luciferase level relative to ODN2006 condition): ASO 100 nM; for TLR9 100 nM (averaged NF-κB-Luciferase level relative to ODN2006 condition) / TLR9 500 nM (averaged NF-κB-Luciferase level relative to ODN2006 condition): relative to ODN2006 only, given as fraction; for TLR9 500 nM (averaged NF-κB-Luciferase level relative to ODN2006 condition): ASO 500 nM; for TLR9 2 uM: 3mer 2'OMe ASO at 2 uM, HEK-TLR9, value relative to Ligand only = 1.000, NT = 0.000.

This note sets out measurements from patent publication US20240384268A1, “Oligonucleotides” (Hudson Institute of Medical Research, priority 2021, published 2024).

In the oligonucleotide strings, read from the 5' end, every base follows the letter of its sugar. An asterisk marks phosphorothioate; unmarked linkages are phosphodiester. Other units and linkages are bracketed, terminal groups are in braces. A string of capitals states the bases alone. d = 2'-deoxy (DNA); m = 2'-O-methyl

For “GGTTACGGCTCAGTAT (antisense; LNA-modified, pattern not given here) [CAMSAP1-4295 LNA KL]”, the “TLR9 100 nM (averaged NF-κB-Luciferase level relative to ODN2006 condition)” value is recorded as 0.943 and the “TLR9 500 nM (averaged NF-κB-Luciferase level relative to ODN2006 condition)” value turned out to be 0.400.
In the case of dG*dC*dC [GCC], the “TLR9 2 uM” value stood at 1.305.
In the case of “dA*dG*dA (DNA AGA; listed as DNA, chemistry not fully specified)”, the “TLR9 2 uM” value was 0.848.
“mGmUmA (GUA; all 2'-O-methyl, backbone not given here; further chemistry not fully specified) [shortMut1-3b]”: the “TLR9 2 uM” value was 1.042.
As to “GGCTGGAATCCGAGTT (antisense; LNA-modified, pattern not given here) [EGFR-4705 LNA KL]”, the “TLR9 100 nM (averaged NF-κB-Luciferase level relative to ODN2006 condition)” value is listed as 1.051 and the “TLR9 500 nM (averaged NF-κB-Luciferase level relative to ODN2006 condition)” value worked out at 0.492.
Regarding CUC (mC*mU*mC), the “TLR9 2 uM” value came to 0.966.
On to UAC (mU*mA*mC), for which the “TLR9 2 uM” value amounted to 0.997.
In the case of CUA (mC*mU*mA), the “TLR9 2 uM” value came to 1.182.
The same measure, in the same setting: next, dG*dC*dG [GCG]: 1.299.
As to “mUmGmA (mU*mG*mA) [UGA, 3-mer 2′OMe PS oligo]”, the “TLR9 2 uM” value came out at 1.034.
On the same count and under the same terms, next, “dC*dA*dA (CAA; listed as DNA, chemistry not fully specified)”: 0.917; AUG (mA*mU*mG): 0.878.
In the case of “GTCTTGGCTTCGTGGA (antisense; LNA-modified, pattern not given here) [MB21D1-522 LNA V1]”, the “TLR9 100 nM (averaged NF-κB-Luciferase level relative to ODN2006 condition)” value came to 0.745 and the “TLR9 500 nM (averaged NF-κB-Luciferase level relative to ODN2006 condition)” value turned out to be 0.392.
On to “mAmUmC (mA*mU*mC) [AUC, 3-mer 2′OMe PS oligo]”, for which the “TLR9 2 uM” value came to 0.884.
Regarding “GCATCCACCACGTCGT (antisense; LNA-modified, pattern not given here) [EGFR-3267 LNA V1]”, the “TLR9 100 nM (averaged NF-κB-Luciferase level relative to ODN2006 condition)” value was found to be 0.556 and the “TLR9 500 nM (averaged NF-κB-Luciferase level relative to ODN2006 condition)” value is listed as 0.375.
Consider “dA*dA*dC (DNA AAC; listed as DNA, chemistry not fully specified)”, for which the “TLR9 2 uM” value amounted to 0.931.
Take “dC*dC*dC (CCC; listed as DNA, chemistry not fully specified)”: the “TLR9 2 uM” value is 1.069.
“TCCAACACTTCGTGGG (antisense; LNA-modified, pattern not given here) [HPRT LNA-669 V1]”: the “TLR9 100 nM (averaged NF-κB-Luciferase level relative to ODN2006 condition)” value was determined as 0.623 and the “TLR9 500 nM (averaged NF-κB-Luciferase level relative to ODN2006 condition)” value turned out to be 0.473.
In the same order, the values of “GTGTCTGGAAGCTTCC (antisense; LNA-modified, pattern not given here) [CTNN2B-809 LNA V1]” are 0.493 and 0.613.
“CCATCCATGAGGTCCT (antisense; LNA-modified, pattern not given here) [CTNN2B-2545 LNA V1]”: the “TLR9 100 nM (averaged NF-κB-Luciferase level relative to ODN2006 condition)” value is on record as 1.383 and the “TLR9 500 nM (averaged NF-κB-Luciferase level relative to ODN2006 condition)” value was 0.476.
For the substance AUU (mA*mU*mU), the “TLR9 2 uM” value is given as 0.864.
Consider CGU (mC*mG*mU), for which the “TLR9 2 uM” value turned out to be 1.237.
On to UGU (mU*mG*mU), for which the “TLR9 2 uM” value amounted to 1.085.
With “TGCACACTTCGTACCC (antisense; LNA-modified, pattern not given here) [CAMSAP1-4916 LNA V1]”, the “TLR9 100 nM (averaged NF-κB-Luciferase level relative to ODN2006 condition)” value came out at 0.283 and the “TLR9 500 nM (averaged NF-κB-Luciferase level relative to ODN2006 condition)” value was 0.244.
In the same order, the values of “GTCCCCTGTTGACTGG (antisense; LNA-modified, pattern not given here) [HPRT LNA-489 KL]” are 0.387 and 0.326.
For “mGmAmU (mG*mA*mU) [GAU, 3-mer 2′OMe PS oligo]”, the “TLR9 2 uM” value came to 0.700.
As for “ACACTTCGTGGGGTCC (antisense; LNA-modified, pattern not given here) [HPRT LNA-665 V1]”, the “TLR9 100 nM (averaged NF-κB-Luciferase level relative to ODN2006 condition)” value is reported as 0.241 and the “TLR9 500 nM (averaged NF-κB-Luciferase level relative to ODN2006 condition)” value is listed as 0.001.
UCC (mU*mC*mC): the “TLR9 2 uM” value worked out at 1.106.
As for UCU (mU*mC*mU), the “TLR9 2 uM” value is given as 0.876.
Turning to “GATAGCACCTTCAGCA (antisense; LNA-modified, pattern not given here) [CTNN2B-1294 LNA KL]”, the “TLR9 100 nM (averaged NF-κB-Luciferase level relative to ODN2006 condition)” value is on record as 0.804 and the “TLR9 500 nM (averaged NF-κB-Luciferase level relative to ODN2006 condition)” value is 0.560.
Consider “TTTTGGCTGGGATCAA (antisense; LNA-modified, pattern not given here) [CAMSAP1-4697 LNA KL]”, for which the “TLR9 100 nM (averaged NF-κB-Luciferase level relative to ODN2006 condition)” value was found to be 0.985 and the “TLR9 500 nM (averaged NF-κB-Luciferase level relative to ODN2006 condition)” value is recorded as 0.169.
Consider “GCAGGCTCAGTGATGT (antisense; LNA-modified, pattern not given here) [CTNN2B-1642 LNA V1]”, for which the “TLR9 100 nM (averaged NF-κB-Luciferase level relative to ODN2006 condition)” value stood at 1.036 and the “TLR9 500 nM (averaged NF-κB-Luciferase level relative to ODN2006 condition)” value was 0.228.
For “dC*dC*dA (CCA; listed as DNA, chemistry not fully specified)”, the “TLR9 2 uM” value was found to be 1.014.
As to mUmCmG (antisense mU*mC*mG) [660-3b], the “TLR9 2 uM” value was determined as 0.514.
For the substance UUC (mU*mU*mC), the “TLR9 2 uM” value came to 0.770.
As to GCU (mG*mC*mU), the “TLR9 2 uM” value amounted to 1.429.
Consider ACU (antisense mA*mC*mU), for which the “TLR9 2 uM” value is 0.996.
On to “TCGTAGTTGCTTCCTA (antisense; LNA-modified, pattern not given here) [MB21D1-1181 LNA KL]”, for which the “TLR9 100 nM (averaged NF-κB-Luciferase level relative to ODN2006 condition)” value is given as 0.987 and the “TLR9 500 nM (averaged NF-κB-Luciferase level relative to ODN2006 condition)” value turned out to be 0.224.
“GCCATCCACTTGATAG (antisense; LNA-modified, pattern not given here) [EGFR-2874 LNA V1]”: the “TLR9 100 nM (averaged NF-κB-Luciferase level relative to ODN2006 condition)” value was 0.772 and the “TLR9 500 nM (averaged NF-κB-Luciferase level relative to ODN2006 condition)” value was found to be 0.589.
As for “dA*dA*dA (DNA AAA; listed as DNA, chemistry not fully specified)”, the “TLR9 2 uM” value amounted to 0.845.
“GCCATGCTGGCTCGGA (antisense; LNA-modified, pattern not given here) [CAMSAP1-2584 LNA V1]”: the “TLR9 100 nM (averaged NF-κB-Luciferase level relative to ODN2006 condition)” value turned out to be 0.879 and the “TLR9 500 nM (averaged NF-κB-Luciferase level relative to ODN2006 condition)” value is listed as 0.147.
As for “mGmUmU (mG*mU*mU) [GUU, 3-mer 2′OMe PS oligo]”, the “TLR9 2 uM” value is on record as 1.159.
In the case of “CAACACTTCGTGGGGT (antisense; LNA-modified, pattern not given here) [HPRT LNA-667 V1]”, the “TLR9 100 nM (averaged NF-κB-Luciferase level relative to ODN2006 condition)” value was 0.733 and the “TLR9 500 nM (averaged NF-κB-Luciferase level relative to ODN2006 condition)” value was determined as 0.395.
With UUU (mU*mU*mU), the “TLR9 2 uM” value worked out at 0.936.
In the case of UAU (mU*mA*mU), the “TLR9 2 uM” value worked out at 1.145.
